Laboratory results as given in patent US12144791B2, “KRAS agonists, pharmaceutical compositions, and uses in managing cancer” (Emory University, priority 2019, dated 2024).

How the values were obtained:
A549 and H157 = test: Annexin V/PI apoptosis, KRA-533 alone or with 3-MA; format: cell-based, human; conditions: 48 h, in combination with KRA-533
Description: To determine whether autophagy plays a role in apoptosis induced by KRA-533, apoptosis was measured by FACS analysis of Annexin V/PI staining following treatments of A549 and H157 with KRA533 alone or in combination with autophagy inhibitor 3-MA for 48 h.

A549 and H157 cells = test: Western blot of autophagy marker p62 with or without chloroquine; format: cell-based, human; conditions: 48 h, in combination with KRA-533
Description: To assess whether the autophagy inhibitor regulates KRA-533-induced autophagy formation, A549 and H157 cells were treated with KRA-533 in the absence or presence of autophagy inhibitor chloroquine for 48 h, followed by Western blot analysis of the autophagy marker p62.

SMILES | KRA-533-induced apoptosis, 3-MA added (A549 and H157) | p62 expression, chloroquine added to KRA-533 (A549 and H157 cells)
Cn1cnc(N)c2ncnc1-2 [3-MA, 3-methyladenine] | enhanced KRA-533-induced apoptosis | –
CCN(CC)CCCC(C)Nc1ccnc2cc(Cl)ccc12 (centres unmarked) [chloroquine, reference compound] | – | restored p62 expression by blocking KRA-533-induced p62 degradation
